In US12357624B2, “Low dose pridopidine for Parkinson's Disease and other diseases associated with parkinsonism” (PRILENIA NEUROTHERAPEUTICS LTD., priority 2019, dated 2025):
Where two headings read alike, the source gives them in different places.

Columns and labels:
[1] = test system: TH-immunoreactive fibers in the lateral striatum; conditions: chronic
Description: Mice allocated to immunohistochemistry were perfusion-fixed on the day after the last rug/saline administration (interval of approx. 20 h from the last injection). Animals were deeply anesthetized with sodium pentobarbital (240 mg/kg, i.p.) and transcardially perfused with 0.9% saline solution, followed by ice-cold buffered 4% paraformaldehyde (pH 7.4). […] Coronal sections of 30 (1 m thickness were cut on a sliding microtome and stored at −20° C. in a nonfreezing solution (30% ethylene glycol and 30% glycerol in 0.1 M phosphate buffer).
(§1) Immunohistochemistry and quantitative analyses were performed according to established protocols [Francardo V, Bez F, Wieloch T, Nissbrandt H, Ruscher K, Cenci 33. MA. Neurobiology of Disease. […] Experimental Eye Research. […] (rabbit anti-TH antiserum from Pel-Freez, Rogers, AR, 1:1000) and Cluster of Differentiation 68 (CD68) (rat anti-CD68 antiserum from AbD Serotec, Kidlington, Oxfordshire, UK; 1:1000). Quantitative analyses were performed by an experimentally blinded investigator using the following methods.
Results were expressed as the total number of TH-immunopositive pixels per sample area (averaged across areas). […] The high-magnification analysis of TH fibers on random sample areas was complemented by optical density (O.D.) measurements of TH immunostaining across the entire dorsolateral and ventro-lateral striatum. […]

[2] = test system: TH immunostaining, ventrolateral and dorsolateral striatum
Excerpt: Results were expressed as the total number of TH-immunopositive pixels per sample area (averaged across areas). […] The high-magnification analysis of TH fibers on random sample areas was complemented by optical density (O.D.) measurements of TH immunostaining across the entire dorsolateral and ventro-lateral striatum. Although this method is much less sensitive than the actual fiber analysis [Francardo V, Bez F, Wieloch T, Nissbrandt H, Ruscher K, Cenci 33. MA. […] Brain: A Journal of Neurology.
The O.D. analysis was carried out in the same rostrocaudal levels using NIH Image J Software, as described in [Francardo V, Recchia A, Popovic N, Andersson D, Nissbrandt H, Cenci M A. Impact of the lesion procedure on the profiles of motor impairment and molecular responsiveness to L-DOPA in the 6-hydroxydopamine mouse model of Parkinson's disease. Neurobiology of Disease.

[3] = test system: CD68-immunopositive microglial cells; conditions: 1 mg/kg
Description: as §1
The European Journal of Neuroscience. […] Seminars in Immunopathology.

[4] = test system: GDNF, BDNF, phosphorylated ERK1/2; conditions: 0.3 mg/kg, 35 days
Description: Animals prepared for Western blot analysis were euthanized by cervical dislocation; their brains were rapidly extracted and frozen on crushed dry ice. Tissue samples were dissected out in a cryostat chamber (−14° C.). […] The striatum was dissected out using a scalpel blade. Tissue samples from the substantia nigra were taken with a tissue puncher of 2 mm diameter spanning across rostrocaudal levels −2.70 to −3.80 relative to the bregma. The samples were kept frozen until further analysis.
Tissue homogenates were prepared in cell lysis buffer (20 mmol/LTris (pH 7.5), 150 mmol/L NaCl, 1 mmol/L EDTA, 1 mmol/L EGTA, 1% Triton X-100, 2.5 mmol/L sodium pyrophosphate, 1 mmol/L |3-glycerolphosphate, 1 mmol/L Na3VO4, […] leupeptin, and 1 mmol/L phenylmethylsulfonyl fluoride). Twenty micrograms of protein was separated on a 10% SDS polyacrylamide gel. […] Thereafter, membranes were incubated overnight at 4° C. using one of the following primary antibodies: rabbit polyclonal anti-GDNF (Santa Cruz Biotechnology, Inc., Santa Cruz, CA; 1:1000) and monoclonal anti-BDNF (Santa Cruz Biotechnology, Inc., 1:1000); rabbit polyclonal antibodies against Thr202/Tyr204-phosphorylated ERK1/2 (p44/42-MAPK; Cell Signaling Technology Inc., Danvers, MA, 1:2000). Following appropriate washing steps, membranes were incubated with HRP-linked secondary antibodies (Sigma-Aldrich, Deisenhofen, Germany; 1:15000). Signals were visualized using a chemiluminescence kit (Merck Millipore, Watford, Hertfordshire, UK), and images were acquired using a CCD camera (LAS1000 system, Fuji Films, Tokyo, Japan). Optical density was measured on specific immunoreactive bands using NIH Image J software. Membranes were then stripped and reprobed with |-actin antibodies (Sigma-Aldrich, 1:50,000). The optical density of specific bands was then normalized to the |-actin band in the same lane.

[5] = test system: STHdhQ7/7 cells expressing Htt96Q-mCherry or Htt20Q-mCherry; conditions: cells without aggregates or cells expressing Htt20Q-mCherry
Excerpt: H2a-GFP was transiently co-expressed with Htt20Q-mCherry or Htt96Q-mCherry (exon 1) in STHdhQ7/7 cells. H2a-GFP aggregation is a marker of cell stress. […] For comparative purposes, 100% represents H2a-GFP relative intensity in untreated cells showing Htt96Q-mCherry aggregates, 0% is H2a-GFP relative intensity in untreated cells without Htt96Q-cherry aggregates.
ER stress levels can be measured using H2a-GFP as protein indicator of early stages of ER stress. H2a-GFP is a misfolded secretory protein which in response to ER stress accumulates. The STHdhQ7/7 is a striatal derived cell line from a knock in transgenic mouse containing homozygous humanized Huntingtin gene (HTT) with 7 polyglutamine repeats (wild type). STHdhQ7/7 cells are transfected with either Htt96Q-mCherry (mutant, mimics the typical pathogenic expression of Htt in HD patients) or Htt20Q-mCherry (normal) constructs. When the polyQ-expanded Htt protein (96Q) exonl fused to fluorescent mCherry protein is expressed, the levels and aggregation of the protein in individual cells can be monitored using a fluorescent microscope.

[6] = test system: WT and YAC128 neurons; conditions: 24 h treatment; after oligomycin plus FCCP
Description: Mitochondrial function was assayed by measuring the levels of the fluorescent probe MitoPY1, which detects H2O2 levels in mitochondria. Mitochondrial membrane potential (MMP) was assessed in cortical and striatal neurons using the positively changed fluorescent probe TMRM (tetramethylrhodamine methyl ester). […] Under these conditions, retention of TMRM by mitochondria was studied to estimate changes in Dym. […] TMRM release was calculated based in the differences in fluorescence before and after addition of oligomycin/FCCP.

[7] = test system: B104 neuroblastoma cell line; conditions: 100 nM and 1 μM; vs control untreated cells; cited from earlier work
[8] = biological target: Sigma-1 receptor (S1R) vs dopamine D2/D3Rs (Rattus norvegicus, UniProt Q9R0C9); conditions: rats; behaviorally relevant doses; cited from earlier work
[9] = test system: wild-type motor neurons; conditions: 0.1 μM, locally applied; cited from earlier work

Sequence of Sigma-1 receptor (S1R) vs dopamine D2/D3Rs (Q9R0C9 whole entry): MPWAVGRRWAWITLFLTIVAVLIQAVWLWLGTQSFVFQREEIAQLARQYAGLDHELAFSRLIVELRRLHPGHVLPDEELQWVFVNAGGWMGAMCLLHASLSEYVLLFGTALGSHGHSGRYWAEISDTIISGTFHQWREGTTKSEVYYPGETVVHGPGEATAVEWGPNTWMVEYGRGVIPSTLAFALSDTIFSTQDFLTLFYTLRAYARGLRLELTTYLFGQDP

CCCN1CCC(c2cccc(S(C)(=O)=O)c2)CC1 [pridopidine, 4-[3-(methylsulfonyl)phenyl]-1-propyl-piperidine]
TH fiber profiles, increase in median values relative to saline ([1]; 0.3 mg/kg s.c. daily): about 15 fold | TH fiber profiles vs saline ([1]; 1.0 mg/kg s.c. daily): did not achieve statistical significance | TH O.D. vs saline ([2]; 0.3 mg/kg, dorsolateral striatum): significant, albeit smaller increase | TH O.D. above saline control levels ([2]; 0.3 mg/kg, ventrolateral striatum): greater than twofold increase | TH O.D. vs saline ([2]; 1 mg/kg, dorsolateral striatum): only a trend | TH O.D. vs saline ([2]; 1 mg/kg, ventrolateral striatum): trend towards an increase that did not reach statistical significance | number of CD68-immunopositive microglial cells ([3]; SNc): trend towards an effect in the SNc | number of CD68-immunopositive microglial cells ([3]; ventrolateral striatum): not in the ventrolateral striatum | striatal BDNF level vs saline ([4]; striatum): +80.8% | striatal GDNF level vs saline ([4]; striatum): +37.6% | striatal phosphorylated ERK1/2 vs saline ([4]; striatum): +71% | BDNF level in the SN vs saline ([4]; substantia nigra): +88.5% | GDNF level in the SN vs saline ([4]; substantia nigra): only BDNF levels showed a significant increase | nigral phosphorylated ERK1/2 vs saline ([4]; substantia nigra): reached significance only in the striatum | H2a-GFP levels [5]: does not alter H2a-GFP levels | mitochondrial membrane potential (ΔΨm) [6]: increases mitochondrial membrane potential | BDNF secretion [7]: enhanced BDNF secretion | receptor occupancy, in vivo PET [8]: occupy the Sigma-1 receptor (S1R) rather than the dopamine D2/D3Rs | mitochondria transport velocity in axons [9]: accelerates mitochondria transport in axons
